Reference: patent publication US6028188A (priority 1994, dated 2000)
[mp] = methylphosphonate linkage

Assays:
[1] = tested on: complementary RNA targets; assay: Tm with complementary RNA target, oligomers 5'-TAG-CTT-CCT-TAG-CTC-CTG-3'; type: binding; details: Table XI
Description: (§1) Annealing reaction mixtures contained equimolar amounts of Oligomer and RNA target Oligomer (2.4 μM total strand concentration), 20 mM potassium phosphate (pH 7.2), 100 mM sodium chloride, 0.1 mM EDTA and 0.03% potassium sarkosylate. The reaction mixtures were heated to 80° C. and then slowly cooled to 4° C. over about 4 to 6 hours. The annealed samples were then transferred to 1 cm quartz cuvettes and Tm was monitored by absorbance at 260 nm as a function of temperature using a Varian Cary Model 2E Spectrophotometer containing a temperature controlled 6×6 sample holder which interfaced with an IBM compatible PC computer. The temperature was varied from 5° C. to 80° C. at a ramp rate of 1° C./minute. The Tm for each melt profile is determined as the point corresponding to the maximum of the first derivative of the curve corresponding to absorbance versus temperature.
The oligomers were synthesized according to methods set forth in the Examples herein and had mixed oligonucleoside sequences complementary to biologically relevant mRNA targets. Tm determinations were done according to the methods described in the proceeding Examples.

pG1035 (SplicerCAT) = assay: Inhibition of CAT expression, splicing reporter pG1035, in COS-7 cells; details: for reduction of CAT expression: pG1035, 1.0 micromolar
pG1036 (wild-type CAT) = assay: CAT expression, non-splicing reporter pG1036, in COS-7 cells; details: for inhibition of expression of non-splicing CAT gene (in words): pG1036
splice acceptor site = assay: Tm of splice acceptor site oligomers; type: binding; details: Table XIII
Description: as §1
The results are given as percent gene expression relative to no-oligomer treatment of cells. The concentration is given above the data columns in micromolar. CAT levels were determined in triplicate as previously given and the experiment has been repeated multiple times. The Tm of the oligomers was determined as previously given.

pGL2 (luciferase) = type: cell-based; details: for percent gene expression relative to no-oligomer treatment, pGL2 (splicing, no match): 1.0 μM; for inhibition of luciferase expression (in words): pGL2
Description: All cultures were maintained at 37° C.
This assay was performed generally as follows according to standard procedures. 20 μl of lysate was combined with 100 μl of luciferase assay reagent (Promega) and counted in a scintillation counter (Packard) within 20 seconds (as recommended by Promega).
In order to determine that the effect against pG1035 was not due to non-specific interference of splicing in general, pGL2 was used as an additional control. pGL2 encodes the luciferase gene and contains an intron that is unrelated to the intron in pG1035.

Substance	Tm(° C. RNA) [1]	percent gene expression relative to no-oligomer treatment, pG1035 (splicing) (pG1035 (SplicerCAT); 0.1 μM)	percent gene expression relative to no-oligomer treatment, pG1035 (splicing) (pG1035 (SplicerCAT); 0.3 μM)	percent gene expression relative to no-oligomer treatment, pG1035 (splicing) (pG1035 (SplicerCAT); head printed 0.1)	reduction of CAT expression (pG1035 (SplicerCAT))	percent gene expression relative to no-oligomer treatment, pG1036 (non-splicing) (pG1036 (wild-type CAT); 0.1 μM)	percent gene expression relative to no-oligomer treatment, pG1036 (non-splicing) (pG1036 (wild-type CAT); 0.3 μM)	percent gene expression relative to no-oligomer treatment, pG1036 (non-splicing) (pG1036 (wild-type CAT); 1.0 μM)	inhibition of expression of non-splicing CAT gene (in words) (pG1036 (wild-type CAT))	Tm (splice acceptor site)	percent gene expression relative to no-oligomer treatment, pGL2 (splicing, no match) (pGL2 (luciferase))	inhibition of luciferase expression (in words) (pGL2 (luciferase))
1630-1: 5'-TAG-CTT-CCT-TAG-CTC-CTG-3' [SEQ. ID. NO. 5], Racemic MP (DNA TAGCTTCCTTAGCTCCTG; all [mp], sugars by position and methylation of C not given here) [Oligomer 1630-1]	39.0 °C	–	–	–	–	–	–	–	–	–	–	–
3373-1B: 18 mer 2'-O-Me (MP(Rp)/DE), 5'-gag aga gag aga ggt tcg-3' [SEQ. ID. NO. 13] (GAGAGAGAGAGAGGTTCG; all 2'-O-methyl, backbone, methylation of C and T or U not given here; Rp methylphosphonate and diester linkages) [Oligomer 3373-1B]	–	59%	31%	10%	90%	95%	85%	81%	Neither oligomer inhibited the expression of the non-splicing CAT gene, pG1036, significantly	80 °C	127%	not inhibited in any way
3373-1A: 24 mer, 2'-O-Me (MP(Rp)/DE), 5'-ccc tga gag aga gag aga ggt tcg [SEQ. ID. NO. 12] (CCCTGAGAGAGAGAGAGAGGTTCG; all 2'-O-methyl, backbone, methylation of C and T or U not given here; Rp methylphosphonate and diester linkages) [Oligomer 3373-1A]	–	81%	48%	26%	74%	91%	89%	105%	Neither oligomer inhibited the expression of the non-splicing CAT gene, pG1036, significantly	84 °C	127%	not inhibited in any way
